Results as given in ChEMBL document CHEMBL1130031, “Binding affinities for sulfonamide inhibitors with human thrombin using Monte Carlo simulations with a linear response method” (J Med Chem, 1997).
pKi: −log10 of the molar value.

Target: Prothrombin (Homo sapiens, UniProt P00734)
Experiment: Inhibition constant against human thrombin

| SMILES | pKi |
| --- | --- |
| CC1CNc2c(cccc2S(=O)(=O)N[C@@H](CCCNC(N)N)C(=O)N2CC[C@@H](C)C[C@@H]2C(=O)O)C1 (stereo partly specified) | 7.72 |
| CC1CCN(C(=O)[C@H](CCCNC(N)N)NS(=O)(=O)c2cccc3c2NCC(C)C3)CC1 (stereo partly specified) | 7.52 |
| CC1CNc2c(cccc2S(=O)(=O)N[C@@H](CCCNC(N)N)C(=O)N2CCCCC2)C1 (stereo partly specified) | 6.89 |
| CC1CNc2c(cccc2S(=O)(=O)N[C@@H](CCCNC(N)N)C(=O)N2CC[C@H](C)C[C@@H]2C(=O)O)C1 (stereo in doubt; 1b) | 5.72 |
| CC1CNc2c(cccc2S(=O)(=O)N[C@@H](CCCNC(N)N)C(=O)N2CC[C@H](C)C[C@@H]2C(=O)O)C1 (stereo in doubt; 1c) | 3.55 |
| CC1CNc2c(cccc2S(=O)(=O)N[C@@H](CCCNC(N)N)C(=O)N2CC[C@H](C)C[C@@H]2C(=O)O)C1 (stereo in doubt; 1g) | 6.62 |
